Test results from publication PMC7154858, “Transcriptional and Biochemical Characterization of Cytosolic Pyruvate Kinases in Arabidopsis thaliana” (Plants, 2020).
Each block holds one compound with its values, some of them ahead of it.

Columns and labels:
Experiment in all cases: LDH-coupled assay, single effector concentration
Assay type in all cases: biochemical
cPK1 [1] = molecular target: T1, cPK1 (Arabidopsis thaliana, UniProt Q9FNN1); conditions: 200 µM; saturating ADP and PEP; 10 mM MgCl2, pH 7.5, 25 °C; inhibitor
T1 construct: gene MAH20.13; full-length cDNA in pET16b, N-terminal His tag (6x in Results, 5x in Methods), E. coli BLR21, Ni-NTA; primer begins MSNIDIEG
T1 sequence (Q9FNN1 1-510): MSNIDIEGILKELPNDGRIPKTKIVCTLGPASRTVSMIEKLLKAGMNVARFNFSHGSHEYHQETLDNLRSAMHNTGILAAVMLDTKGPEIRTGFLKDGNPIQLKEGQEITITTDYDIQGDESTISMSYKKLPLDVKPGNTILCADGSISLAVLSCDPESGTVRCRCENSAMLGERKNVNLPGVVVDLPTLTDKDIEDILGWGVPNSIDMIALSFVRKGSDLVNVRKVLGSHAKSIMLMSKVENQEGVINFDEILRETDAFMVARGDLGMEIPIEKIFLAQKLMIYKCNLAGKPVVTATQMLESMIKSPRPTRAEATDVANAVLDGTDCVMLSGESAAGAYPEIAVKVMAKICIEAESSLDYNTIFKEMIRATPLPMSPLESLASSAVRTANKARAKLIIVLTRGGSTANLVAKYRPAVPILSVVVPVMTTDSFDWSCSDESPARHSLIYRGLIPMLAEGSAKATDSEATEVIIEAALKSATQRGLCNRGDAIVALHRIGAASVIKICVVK

cPK1 [2] = molecular target: T1, cPK1; conditions: 1000 µM; saturating ADP and PEP; 10 mM MgCl2, pH 7.5, 25 °C; activator
cPK3 [3] = molecular target: T2, cPK3 (Arabidopsis thaliana, UniProt Q9FFP6); conditions: 2000 µM; saturating ADP and PEP; 10 mM MgCl2, pH 7.5, 25 °C; inhibitor (also reaction product)
T2 construct: gene MBK5.16; printed locus At5g56350 duplicates cPK2 (apparent misprint); primer begins MSNIDIE, unlike cPK2; full-length cDNA in pET16b, N-terminal His tag (6x/5x), E. coli BLR21, Ni-NTA
T2 sequence (Q9FFP6 1-510): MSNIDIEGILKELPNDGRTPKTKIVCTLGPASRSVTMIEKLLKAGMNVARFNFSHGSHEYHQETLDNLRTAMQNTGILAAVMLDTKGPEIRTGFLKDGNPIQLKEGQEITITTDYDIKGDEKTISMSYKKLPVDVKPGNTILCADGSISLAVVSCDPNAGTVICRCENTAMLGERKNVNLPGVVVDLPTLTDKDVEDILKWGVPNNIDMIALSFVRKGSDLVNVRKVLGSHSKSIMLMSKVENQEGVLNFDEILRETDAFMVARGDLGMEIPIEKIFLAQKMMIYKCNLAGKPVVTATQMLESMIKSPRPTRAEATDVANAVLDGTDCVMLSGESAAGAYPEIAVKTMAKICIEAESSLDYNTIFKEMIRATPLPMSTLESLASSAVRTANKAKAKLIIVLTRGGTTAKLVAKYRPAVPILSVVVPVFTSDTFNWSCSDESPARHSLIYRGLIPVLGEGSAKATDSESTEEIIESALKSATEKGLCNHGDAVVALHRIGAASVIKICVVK

cPK1 [4] = molecular target: T1, cPK1; conditions: 2000 µM; saturating ADP and PEP; 10 mM MgCl2, pH 7.5, 25 °C; inhibitor (also reaction product)
cPK2 [5] = molecular target: T3, cPK2 (Arabidopsis thaliana, UniProt Q9FM97); conditions: 2000 µM; saturating ADP and PEP; 10 mM MgCl2, pH 7.5, 25 °C; inhibitor (also reaction product)
T3 construct: gene MCD7.8; full-length cDNA in pET16b, N-terminal His tag (6x in Results, 5x in Methods), E. coli BLR21, Ni-NTA; primer begins MAMIEQ
T3 sequence (Q9FM97 1-498): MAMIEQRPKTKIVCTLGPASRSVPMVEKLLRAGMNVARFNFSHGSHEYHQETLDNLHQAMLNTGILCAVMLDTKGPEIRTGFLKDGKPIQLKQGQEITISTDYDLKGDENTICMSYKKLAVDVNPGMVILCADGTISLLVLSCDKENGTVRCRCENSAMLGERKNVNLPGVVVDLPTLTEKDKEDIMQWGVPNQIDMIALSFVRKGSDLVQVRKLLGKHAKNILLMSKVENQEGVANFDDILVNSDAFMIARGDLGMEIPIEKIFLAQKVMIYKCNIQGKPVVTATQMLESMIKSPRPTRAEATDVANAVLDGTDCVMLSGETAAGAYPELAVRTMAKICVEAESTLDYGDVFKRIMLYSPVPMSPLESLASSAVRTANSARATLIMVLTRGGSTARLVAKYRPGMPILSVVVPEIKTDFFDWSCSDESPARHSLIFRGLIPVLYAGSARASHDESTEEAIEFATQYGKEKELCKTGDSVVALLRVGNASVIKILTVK

cPK3 [6] = molecular target: T2, cPK3; conditions: 4000 µM; saturating ADP and PEP; 10 mM MgCl2, pH 7.5, 25 °C; allosteric inhibitor (stated)
cPK1 [7] = molecular target: T1, cPK1; conditions: 4000 µM; saturating ADP and PEP; 10 mM MgCl2, pH 7.5, 25 °C; allosteric inhibitor (stated)
cPK5 = molecular target: T4, cPK5 (Arabidopsis thaliana, UniProt F4J867); conditions: 4000 µM; saturating ADP and PEP; 10 mM MgCl2, pH 7.5, 25 °C; allosteric inhibitor (stated)
T4 construct: gene At3g52990; full-length cDNA in pET16b, N-terminal His tag (6x in Results, 5x in Methods), E. coli BLR21, Ni-NTA; primer begins MHSSHL
T4 sequence (F4J867 1-527): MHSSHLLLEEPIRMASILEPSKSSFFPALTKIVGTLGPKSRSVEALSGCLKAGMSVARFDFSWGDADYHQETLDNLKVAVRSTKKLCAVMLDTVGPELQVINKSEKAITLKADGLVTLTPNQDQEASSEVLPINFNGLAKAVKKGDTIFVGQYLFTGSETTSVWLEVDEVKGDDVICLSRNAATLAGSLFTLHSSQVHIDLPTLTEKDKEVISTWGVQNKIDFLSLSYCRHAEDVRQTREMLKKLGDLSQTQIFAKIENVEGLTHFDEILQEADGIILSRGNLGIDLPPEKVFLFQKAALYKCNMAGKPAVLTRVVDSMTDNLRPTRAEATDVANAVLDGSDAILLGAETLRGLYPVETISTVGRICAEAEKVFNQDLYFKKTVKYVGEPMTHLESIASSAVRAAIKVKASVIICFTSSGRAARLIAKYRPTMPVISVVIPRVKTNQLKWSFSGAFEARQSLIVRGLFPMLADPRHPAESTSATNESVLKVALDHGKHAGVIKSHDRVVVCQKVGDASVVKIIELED

cPK2 [8] = molecular target: T3, cPK2; conditions: 4000 µM; saturating ADP and PEP; 10 mM MgCl2, pH 7.5, 25 °C; allosteric inhibitor (stated)
cPK4 = molecular target: T5, cPK4 (Arabidopsis thaliana, UniProt Q9SJQ0); conditions: 4000 µM; saturating ADP and PEP; 10 mM MgCl2, pH 7.5, 25 °C; allosteric inhibitor (stated)
T5 construct: gene At2g36580; full-length cDNA in pET16b, N-terminal His tag (6x in Results, 5x in Methods), E. coli BLR21, Ni-NTA; primer begins MHSSHL
T5 sequence (Q9SJQ0 1-527): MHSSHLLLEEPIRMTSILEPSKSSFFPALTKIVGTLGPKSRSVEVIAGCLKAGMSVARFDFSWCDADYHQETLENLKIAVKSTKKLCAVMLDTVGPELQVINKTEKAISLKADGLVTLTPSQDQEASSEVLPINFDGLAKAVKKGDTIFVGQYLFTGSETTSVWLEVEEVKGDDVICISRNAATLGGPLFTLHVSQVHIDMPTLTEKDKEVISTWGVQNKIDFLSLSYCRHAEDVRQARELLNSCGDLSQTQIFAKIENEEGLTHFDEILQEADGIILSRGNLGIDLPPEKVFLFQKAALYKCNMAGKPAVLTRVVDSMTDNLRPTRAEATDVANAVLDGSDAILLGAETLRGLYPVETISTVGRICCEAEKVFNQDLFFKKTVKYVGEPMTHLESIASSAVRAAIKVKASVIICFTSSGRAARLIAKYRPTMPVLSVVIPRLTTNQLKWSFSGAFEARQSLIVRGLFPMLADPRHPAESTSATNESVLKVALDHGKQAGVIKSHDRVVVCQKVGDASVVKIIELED

Aspartate (cPK1 [1]): 69%
SMILES: N[C@@H](CC(=O)O)C(=O)O [aspartate]

F1.6BP (cPK1 [2]): 122%
SMILES: O=P(O)(O)OC[C@H]1OC(O)(COP(=O)(O)O)[C@@H](O)[C@@H]1O (stereo partly shown) [F1.6BP]

ATP (cPK3 [3]): 27%
ATP (cPK1 [4]): 7%
ATP (cPK2 [5]): 76%
SMILES: Nc1ncnc2c1ncn2[C@@H]1O[C@H](COP(=O)(O)OP(=O)(O)OP(=O)(O)O)[C@@H](O)[C@H]1O [ATP]

Citrate (cPK3 [6]): 7%
Citrate (cPK1 [7]): 17%
Citrate (cPK5): 2%
Citrate (cPK2 [8]): 26%
Citrate (cPK4): 3%
SMILES: O=C(O)CC(O)(CC(=O)O)C(=O)O [citrate]
